The target of the first assay is human mGluR2 (Homo sapiens (Human), UniProt Q14416). The experiment in a line: [35S]GTPγS binding assay (Affinity to mGluR2). In kind it is biochemical. The conditions noted are these: cell membrane fraction of HEK293 cells stably expressing human mGluR2; glutamic acid 10 μM. In short, it runs like this: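 Membranes from HEK293 cells stably co-expressing human mGluR2 and SLC1A3 (1.8–3 μg protein) preincubated with compound 30 min at RT, then stimulated with 10 μM glutamate 15 min; [35S]GTPγS (0.8 kBq) with WGA-SPA beads 1 h, buffer with 3 μM GDP, 100 mM NaCl, 1 mM MgCl2. IC50 from inhibition of glutamate-specific binding.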
Sequence of human mGluR2 (Q14416 19-872): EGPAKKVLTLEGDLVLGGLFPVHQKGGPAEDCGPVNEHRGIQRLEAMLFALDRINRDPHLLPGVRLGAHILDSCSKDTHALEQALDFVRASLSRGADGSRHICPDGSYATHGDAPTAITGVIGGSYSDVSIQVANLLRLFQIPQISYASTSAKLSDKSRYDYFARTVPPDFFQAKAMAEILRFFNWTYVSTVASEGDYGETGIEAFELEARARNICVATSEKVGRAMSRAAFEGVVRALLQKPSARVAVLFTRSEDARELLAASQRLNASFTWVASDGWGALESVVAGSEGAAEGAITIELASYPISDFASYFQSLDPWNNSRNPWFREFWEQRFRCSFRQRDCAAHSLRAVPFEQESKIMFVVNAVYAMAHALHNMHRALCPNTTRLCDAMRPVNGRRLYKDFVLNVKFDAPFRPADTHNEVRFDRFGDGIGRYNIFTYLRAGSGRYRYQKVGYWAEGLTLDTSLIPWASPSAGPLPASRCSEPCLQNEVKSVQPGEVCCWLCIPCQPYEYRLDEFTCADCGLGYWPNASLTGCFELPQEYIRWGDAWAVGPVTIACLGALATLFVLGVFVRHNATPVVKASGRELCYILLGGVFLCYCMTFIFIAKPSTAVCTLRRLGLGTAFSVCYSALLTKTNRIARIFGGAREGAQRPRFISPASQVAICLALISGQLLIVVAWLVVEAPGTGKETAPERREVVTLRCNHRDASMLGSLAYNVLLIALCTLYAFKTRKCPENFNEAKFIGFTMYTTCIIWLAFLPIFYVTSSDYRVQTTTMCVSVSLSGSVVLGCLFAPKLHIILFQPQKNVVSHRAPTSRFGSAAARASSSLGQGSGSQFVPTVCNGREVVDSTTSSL
A general note: GTPγS resists hydrolysis and so accumulates on activated G proteins.
Usually IC50 stands for the concentration that gives 50% inhibition. Low values mean higher potency, high ones lower potency. `COc1cc(-c2nc(-c3ccnc(C)c3)c3n2C[C@@H](C)OCC3)ccc1OC(F)(F)F` [Example 24, (R)-3-(3-methoxy-4-(trifluoromethoxy)phenyl)-6-methyl-1-(2-methylpyridin-4-yl)-5,6,8,9-tetrahydroimidazo[1,5-d][1,4]oxazepine] showed an IC50 of 4.8 nM.
`Cc1cc(-c2nc(-c3ccc(Cl)c(F)c3)n3c2CCO[C@H](C)C3)cc(CF)n1` [Example 87]: the IC50 came out at 22 nM.
In turn, `Cc1cc(-c2nc(-c3ccc(F)c(OCC4(C)COC4)c3)n3c2CCO[C@H](C)C3)cc(C)n1` [Example 99] showed an IC50 of 103 nM.
As to `Cc1cc(-c2nc(-c3ccc(OC(F)(F)F)c(Cl)c3)n3c2CCOCC3)cc(C)n1` [Example 112], the IC50 is 17.9 nM.
`Cc1cc(-c2nc(-c3ccc(C(F)(F)F)c(C)c3)n3c2CCOCC3)cc(C)n1` [Example 113] came in with an IC50 of 27 nM.
The same measure, in the same setting: to `Cc1cc(-c2nc(-c3ccc(Cl)c(Cl)c3)n3c2CCO[C@H](C)C3)cc(CF)n1` [Example 89] belongs 13.2 nM; to `Cc1cc(-c2nc(-c3ccc(OC(F)(F)F)cc3)n3c2CCO[C@H](C)C3)ccn1` [Example 50], 14.2 nM; to `Cc1cc(-c2nc(-c3ccc(Cl)c(F)c3)n3c2CCOCC3)cc(C)n1` [Example 105], 92.1 nM.
As to `Cc1cc(-c2nc(-c3ccc(C(F)(F)F)c(Cl)c3)n3c2CCOCC3)cc(C)n1` [Example 109], the IC50 came out at 9.1 nM.
On the same count and under the same terms, the figure for `COc1cc(-c2nc(-c3ccnc(C)c3)c3n2C[C@@H](C)OCC3)ccc1Cl` [Example 114] is 19.2 nM; for `CCc1ccc(-c2nc(-c3ccnc(C)c3)c3n2C[C@@H](C)OCC3)cc1OC` [Example 101] it is 7.6 nM.
Regarding `Cc1cc(-c2nc(-c3ccc(Cl)cc3)n3c2CCO[C@H](C)C3)cc(C)n1` [Example 61], the half-maximal inhibitory concentration (IC50) stood at 21.7 nM.
The molecule `Cc1cc(-c2nc(-c3ccc(F)c(OCC(F)F)c3)n3c2CCOCC3)cc(C)n1` [Example 92] had an IC50 of 95.8 nM.
`COc1cc(-c2nc(-c3ccnc(C)c3)c3n2C[C@@H](CF)OCC3)ccc1Cl` [Example 26, (S)-3-(4-chloro-3-methoxyphenyl)-6-fluoromethyl-1-(2-methylpyridin-4-yl)-5,6,8,9-tetrahydroimidazo[1,5-d][1,4]oxazepine] registered an IC50 of 13.5 nM.
The same measure, in the same setting: to `Cc1cc(-c2nc(-c3ccc(OC(F)F)c(Cl)c3)n3c2CCO[C@H](C)C3)ccn1` [Example 21, (R)-3-(3-chloro-4-(difluoromethoxy)phenyl)-6-methyl-1-(2-methylpyridin-4-yl)-5,6,8,9-tetrahydroimidazo[1,5-d][1,4]oxazepine] belongs 7.5 nM; to `Cc1cc(-c2nc(-c3cccc(Cl)c3)n3c2CCO[C@H](C)C3)cc(C)n1` [Example 62], 37.7 nM; to `Cc1cc(-c2nc(-c3ccc(OC(F)(F)F)cc3)n3c2CCOCC3)cc(C)n1` [Example 42], 45.3 nM.
Consider `Cc1cc(-c2nc(-c3ccc(OC(F)F)c(C)c3)n3c2CCO[C@H](C)C3)ccn1` [Example 15, (R)-3-(4-(difluoromethoxy)-3-methylphenyl)-6-methyl-1-(2-methylpyridin-4-yl)-5,6,8,9-tetrahydroimidazo[1,5-d][1,4]oxazepine], for which the IC50 amounted to 7.4 nM.
On to `CCOc1cc(-c2nc(-c3ccnc(C)c3)c3n2C[C@@H](C)OCC3)ccc1C(F)(F)F` [Example 83], for which the IC50 was determined as 1.7 nM.
`Cc1cc(-c2nc(-c3ccc(F)c(OCC4CCC4)c3)n3c2CCOCC3)cc(C)n1` [Example 97]: the IC50 was determined as 25.4 nM.
Consider `Cc1cc(-c2nc(-c3ccc(OC(F)F)c(F)c3)n3c2CCOCC3)cc(C)n1` [Example 119], for which the IC50 came out at 31.8 nM.
Turning to `COc1cc(-c2nc(-c3ccnc(C)c3)c3n2CCOCC3)ccc1C(F)(F)F` [Example 123], the IC50 came out at 36 nM.
As to `Cc1cc(-c2nc(-c3ccc(OC4CC4)c(Cl)c3)n3c2CCO[C@H](C)C3)cc(C)n1` [Example 19, (R)-3-(3-chloro-4-cyclopropoxyphenyl)-1-(2,6-dimethylpyridin-4-yl)-6-methyl-5,6,8,9-tetrahydroimidazo[1,5-d][1,4]oxazepine], the IC50 turned out to be 3 nM.
Molecule `Cc1cc(-c2nc(-c3ccc(Cl)c(Cl)c3)n3c2CCOCC3)cc(C)n1` [Example 103] registered an IC50 of 26 nM.
`Cc1cc(-c2nc(-c3ccc(F)c(OCC4CCC4)c3)n3c2CCO[C@H](C)C3)cc(C)n1` [Example 98] yielded an IC50 of 3.1 nM.
`Cc1cc(-c2nc(-c3ccc(Cl)c(C)c3)n3c2CCO[C@H](CF)C3)cc(C)n1` [Example 73]: the IC50 is 24.8 nM.
For the molecule `Cc1cc(-c2nc(-c3ccc(OC(F)(F)F)cc3)n3c2CCOCC3)ccn1` [Example 43], the IC50 was found to be 90 nM.
The molecule `COc1cc(-c2nc(-c3cc(C)nc(C)c3)c3n2CCOCC3)ccc1C(F)F` [Example 121] had an IC50 of 40.9 nM.

The same assay, now with this note: cell membrane fraction of HEK293 cells stably expressing human mGluR2; glutamic acid 10 μM; inhibition of specific [35S]GTPγS binding.
On to `Cc1cc(-c2nc(-c3ccc(OC(F)(F)F)c(F)c3)n3c2CCO[C@H](C)C3)cc(C)n1` [Example 147], for which the IC50 amounted to 10.5 nM.
The same measure, in the same setting: the figure for `Cc1cc(-c2nc(-c3ccc(OC(F)(F)F)c(Cl)c3)n3c2CCO[C@H](C)C3)ccn1` [Example 153] is 3 nM; for `Cc1cc(-c2nc(-c3ccc(OC(F)(F)F)c(C#N)c3)n3c2CCO[C@H](CF)C3)cc(C)n1` [Example 195] it is 3.7 nM.
Same read-out and setting: to `COc1cc(-c2nc(-c3cc(C)nc(C)c3)c3n2C[C@@H](C)OCC3)ccc1OC(F)F` [Example 148] belongs 9.6 nM; to `Cc1cc(-c2nc(-c3ccc(OC(F)F)c(F)c3)n3c2CCO[C@H](C)C3)cc(C)n1` [Example 181], 16.1 nM.
`Cc1cc(-c2nc(-c3ccc(OC(F)(F)F)c(C)c3)n3c2CCO[C@H](CF)C3)cc(C)n1` [Example 161] had an IC50 of 4 nM.
Still for that read-out and setting: to `COc1ccc(-c2nc(-c3cc(C)nc(C(F)F)c3)c3n2C[C@@H](C)OCC3)cc1C` [Example 178] belongs 17.8 nM.
`Cc1cc(-c2nc(-c3ccc(OC(F)F)c(C)c3)n3c2CCO[C@H](C)C3)cc(CF)n1` [Example 199] registered an IC50 of 5.2 nM.
`COc1ccc(-c2nc(-c3cc(C)nc(C)c3)c3n2C[C@@H](CF)OCC3)cc1OC(F)(F)F` [Example 175] came in with an IC50 of 18.5 nM.
`COc1ccc(-c2nc(-c3cc(C)nc(CF)c3)c3n2C[C@@H](C)OCC3)cc1OC(F)(F)F` [Example 210]: the IC50 worked out at 4.7 nM.
Molecule `Cc1cc(-c2nc(-c3ccc(C)c(OCC(C)C)c3)n3c2CCO[C@H](C)C3)cc(C)n1` [Example 227] came in with an IC50 of 22 nM.
Still for that read-out and setting: the figure for `COc1ccc(-c2nc(-c3cc(C)nc(C)c3)c3n2C[C@@H](CF)OCC3)cc1C` [Example 245] is 5.2 nM; for `Cc1cc(-c2nc(-c3ccc(F)c(OC(F)F)c3)n3c2CCO[C@H](C)C3)ccn1` [Example 185] it is 19.5 nM; for `COc1ccc(-c2nc(-c3cc(C)nc(C)c3)c3n2C[C@@H](C)OCC3)cc1OC(F)(F)F` [Example 154] it is 6.7 nM.
As for `Cc1cc(-c2nc(-c3ccc(OC(C)C)c(C)c3)n3c2CCO[C@H](CF)C3)cc(C)n1` [Example 244], the IC50 amounted to 1.8 nM.
Regarding `Cc1cc(-c2nc(-c3ccc(OC(F)F)c(CF)c3)n3c2CCO[C@H](C)C3)ccn1` [Example 236], the IC50 is 2.9 nM.
Consider `Cc1cc(-c2nc(-c3ccc(OC(F)(F)F)c(C#N)c3)n3c2CCO[C@H](C)C3)cc(CF)n1` [Example 203], for which the IC50 worked out at 4.9 nM.
On the same count and under the same terms, the figure for `CCOc1cc(-c2nc(-c3cc(C)nc(C)c3)c3n2CCOCC3)ccc1CC` [Example 213] is 10.7 nM; for `Cc1cc(-c2nc(-c3ccc(OC(F)F)c(C)c3)n3c2CCO[C@H](CF)C3)cc(C(F)F)n1` [Example 188] it is 20.8 nM.
With `CCOc1ccc(-c2nc(-c3cc(C)nc(C)c3)c3n2C[C@@H](CF)OCC3)cc1C` [Example 243], the IC50 amounted to 1.7 nM.
Molecule `Cc1cc(-c2nc(-c3ccc(OC(F)F)c(C)c3)n3c2CCO[C@H](C)C3)cc(CO)n1` [Example 177] registered an IC50 of 29.4 nM.
Regarding `Cc1cc(-c2nc(-c3ccc(OC(F)(F)F)c(C#N)c3)n3c2CCO[C@H](C)C3)ccn1` [Example 169], the IC50 turned out to be 4.6 nM.

The test system of the next assay is Long-Evans rats. The experiment in a line: Novel Object Recognition (NOR) test in rats with scopolamine-induced cognitive impairment. The conditions noted are these: male Long-Evans rats, scopolamine 0.3 mg/kg i.p.; statistically significant difference in discrimination index vs scopolamine alone group. In kind it is in vivo, rat. How it is done:
Six-week old male Long-Evans rats were used for this test. For 2 days before starting the test, the rats were acclimated to experimental operations such as administration and a test device (that is, a black or gray plastic cage with a width of 40 cm, a depth of 30 cm and a height of 45 cm). Each test compound was dissolved in a 0.1 N hydrochloric acid to be orally administered. Thirty minutes after the administration, scopolamine hydrobromide was intraperitoneally administered at a 0.3 mg/kg dose, so as to induce cognitive impairment. After another 30 minutes, each rat was acclimated in the test device for 3 minutes, and thereafter, two blocks in the same shape were put in the test device as acquisition trial, and exploring time for each block was measured for 5 minutes. Two hours after the acquisition trial, the rat was acclimated in the test device for 3 minutes, and thereafter, the same block as those used in the acquisition trial and a new block in a different shape were put in the cage for retention trial. The exploring time for each block was measured for 3 minutes, and a ratio of the exploring time for the newly used block to the sum of the exploring times for the respective blocks was calculated as a discrimination index. The thus obtained discrimination indexes were compared among a group of rats to which a medium alone was administered (medium group), a group of rats to which scopolamine alone was administered (scopolamine alone group) and a group of rats to which both the test compound and scopolamine were administered, so as to evaluate the action of the test compound on the novel object recognition function (cognitive function) of the rats.
Each discrimination index was shown as an average and a standard error. The statistical significance between the medium group and the scopolamine alone group was analyzed by the independent t-test. The statistical significance between the scopolamine alone group and each sample group was analyzed by one-way analysis of variance and then by Dunnett's multiple comparison test. The significance level was set to 5% on both sides. […] The analysis was carried out by using Prism 5 for Windows for Japanese, ver. 5.03.
A minimum effective dose at which a statistically significant difference was found between a group suffering from the cognitive impairment induced by scopolamine and a group treated with each compound is shown in Table 10.
Take `COc1cc(-c2nc(-c3ccnc(C)c3)c3n2C[C@@H](C)OCC3)ccc1OC(F)(F)F` [Example 24, (R)-3-(3-methoxy-4-(trifluoromethoxy)phenyl)-6-methyl-1-(2-methylpyridin-4-yl)-5,6,8,9-tetrahydroimidazo[1,5-d][1,4]oxazepine]: the Minimum effective dose is on record as 1 mg/kg, p.o.
As to `Cc1cc(-c2nc(-c3ccc(Cl)c(F)c3)n3c2CCO[C@H](C)C3)cc(CF)n1` [Example 87], the Minimum effective dose is on record as 3 mg/kg, p.o.

(Values after US9458176B2, “Tetrahydroimidazo(1,5-D)[1,4]oxazepine derivative” (Eisai R&D Management Co., Ltd., priority 2013, dated 2016).)
